For assay [1], the system named is Nerve cells of the cerebral cortex. In words: Pharmacological test 1: neurite sprouting (NS) of cultured fetal rat cerebral cortex nerve cells, phase contrast microscopy versus control. The assay is classed as cell-based. Also on record: key: ++: extremely strong in comparison with the control; +: strong in comparison with the control; ±: same as the control; -: inferior to the control. As to conditions: 10 days after initiation of culture. The source says:
Nerve cells of the cerebral cortex were removed aseptically from a fetal rat (17 days-old) and cultured according to a Asou's method [Asou, H. Brain Res., 332; pages 355-357 (1985)]. After the meninx, blood vessel, etc. were removed from the cerebral hemisphere, they were put through a stainless steel mesh (pore size: 140μm). Then, the isolated cells were floated on a culture medium (Eagle's basal medium containing 10% fetal bovine serum and glucose of 1 g/l) and 1.5×10^6 cells were respectively seeded on a dish (diameter: 35 mm) coated with poly-L-lysine to initiate the culture (37° C., 3% CO2). After 24 hours, the culture medium was replaced by a culture medium containing a test compound and cultured for additional 9 days.
10 Days after initiation of the culture, neurite sprouting (NS) was evaluated under phase contrast microscopy by comparing with the control group.

The test system of assay [2] is mouse dorsal root ganglion cells. In words: Pharmacological Test 2: neurite outgrowth in primary culture of mouse dorsal root ganglion cells. Type of assay: cell-based, mouse (C57BL/6). Also on record: key: +: positive; ±: false positive; -: negative. To be noted: Dose 10^-7 (mole); 7 days culture. How it is done:
(The measurement of neurite outgrowth in primary culture of mouse dorsal root ganglion cells)
Preparation of cells was conducted according to a method of Horie et al. [H. Horie., FEBS, 296, 23 (1990)]. That is, C57BL/6 male mice aged 10 to 15 weeks were used. They were bleeded to death under ether anesthetization and the backbone from cervical vertebra to sacral vertebra was removed. The capsule of dorsal root ganglion of which ventral root and dorsal root had been cut was stripped in a Ham F12 medium (Flow laboratories) and then ganglia were treated with 0.25% collagenase (Worthington Biochemical Corporation) at 37° C. for 90 minutes. The medium was replaced by a Hank's physiological buffer solution containing no calcium and magnesium and cells were treated with 0.25% trypsin (Flow Laboratories) at room temperature for 20 minutes. A trypsin inhibitor (Sigma, 100 μg/ml) was added to terminate the enzyme reaction and trituration was conducted 20 times using a tapered Pasteur pipette. The medium was replaced again by the Ham F12 medium and cells were put through a nylon mesh (150 μm) to remove a cell mass which had not been separated. Cells were suspended in the Ham F12 medium containing a N1 additive [Bottenstein, J. E., Exp. Cell. Res., 125, 183 (1980)] (kanamycin of 60 μg/ml added).
A poly-1-lysine-coating cell disc as a culture medium which had been subjected to 10 μg/ml laminin (Koken Cell Gen) coating treatment at 37° C. for 3 hours was placed on a 24 well dish and nerve cells (5000 to 10000 cells/dish) were seeded. The test compound (concentration: 0.01 mol/l) was dissolved in dimethyl sulfoxide and diluted with a phosphate buffer solution to adjust to a final concentration, and then added to a culture solution. Cells were cultured in 5% CO2 -95% air phase at 37° C. for 7 days.
For the measurement of neurite outgrowth, the cell disc was washed with a phosphate buffer solution 7 days after initiation of the culture and immobilized with 4% paraformaldehyde at 4° C. for 24 hours, and then immune staining was conducted with Vecstatin ABC kit (Vector) using a neurofilament antibody (200 kD, manufactured by Boehringer Mannheim GmbH). The periphery of the cell disc was restrictively observed under microscopy, and the amount of neurofilament (whole length per well) was evaluated by comparing with the control well according to the following criteria: positive (+), false positive (±) and negative (-).

Assay [3] has as its system hyperoxidation reaction of lipid (microsome fraction). In words: Pharmacological test 3: antioxidation action, hyperoxidation reaction of lipid due to ascorbic acid induction in liver microsome fraction (TBA value). Type of assay: biochemical, Wister rat. To be noted: 37° C., 15 minutes; 200 μM ascorbic acid, 20 μM ferrous sulfate; read-out: IC50 (antioxidation, 50% inhibition concentration). How it is done:
(The measurement of antioxidation action)
The antioxidation action was measured using the hyperoxidation reaction of lipid due to ascorbic acid induction [Shimada, O. and Yasuda, H. BBA489, 163-172 (1977)].
Microsome fraction was obtained from a lever of Wister rat by a Kato's method [J. Biochem., 59, 574 (1966)]. This fraction was added to a 60 mM potassium phosphate buffer solution (containing 45 mM potassium chloride, 200 μM ascorbic acid and 20 μM ferrous sulfate) in an amount of 1 mg/ml and the test compound (0.1% dimethyl sulfoxide) was added, and the mixture was incubated at 37° C. for 15 minutes. The same amount of 10% trichloroacetic acid was added and the resultant was centrifuged. A portion of the supernatant was collected and the amount of malondialdehyde due to thiobarbituric acid (TBA value) was measured [Klaassen, C. D. and Plaa, G. L. Biochem. Pharmacol., 18: 2019 (1969)]. The inhibition ratio was calculated by the following formula:
Inhibition ratio={1-(TBA value of specimen)/(TBA value of […]

The next assay has as its target T1, C-GMP-PDE (type V) (Homo sapiens, UniProt O76074).
T1 construct: from tissue; host or cells: human blood platelets (healthy adult), DEAE-cellulose fraction FI
As to the kind of experiment: Pharmacological test 4: C-GMP-PDE (type V) inhibition action. Type of assay: biochemical. To be noted: FI fraction from human blood platelet. The procedure: (C-GMP-PDE (type V) inhibition action)
The separation and purification of PDE from a human blood platelet was conducted according to a method of Hidaka et al. [Hidaka, H. and Asano, I., Biochem. Biophys. Acta 429, 485-497 (1976)]. That is, a blood platelet derived from a healthy adult was washed with water, floated with a Tris buffer solution and centrifuged. Then, the supernatant thereof was applied to DEAE-cellulose and separated into three fractions, FI, FII and FIII due to concentration gradient of sodium acetate. By using FI having high affinity to C-GMP, the inhibition action of the test compound was examined. The influence of the drug on PDE was represented by the inhibition ratio to PDE activity in the absence of the drug.

The structures appear in SMILES notation.

As to `C=CCc1c(O)c(O)c(CC=C)c2c1C(=O)c1ccccc1-2` [Example 21, 1,4-diallyl-2,3-dihydroxyfluorenone], the “neurite sprouting (NS)” value in assay [1] (Dose 10^-7 (mole)) was “++”. In addition, the Neurite outgrowth action entry in assay [2] was “+”. Moreover, the results for the IC50 (in assay [3]; at C-GMP-PDE (type V)) were 100 nM and 14700 nM, respectively.
On to `C=CCc1ccc2c(c1O)-c1ccc(O)c(CC=C)c1C2=O` [Example 27, 1,6-Diallyl-2,5-dihydroxyfluorenone], for which the “neurite sprouting (NS)” value in assay [1] (Dose 10^-5 (mole)) was “+”. Besides, the Neurite outgrowth action entry in assay [2] is recorded as “+”. In addition, the IC50 in assay [3] was found to be 1600 nM; on C-GMP-PDE (type V), 8700 nM.
Take `C=CCc1cc2c(c(CC=C)c1O)C(=O)c1c(CC=C)cc(CC=C)c(O)c1-2` [Example 31]: the “neurite sprouting (NS)” value in assay [1] (Dose 10^-7 (mole)) is on record as “+”. Further, the Neurite outgrowth action result in assay [2] is given as “+”. For the same compound, the IC50 in assay [3] came out at 200 nM; against C-GMP-PDE (type V), 400 nM.
As to `C=CCc1cc2c(cc1O)C(=O)c1c-2ccc(O)c1CC=C` [Example 47, 1,6-Diallyl-2,7-dihydroxyfluorenone], the “neurite sprouting (NS)” value in assay [1] (Dose 10^-6 (mole)) is “+”. The Neurite outgrowth action entry in assay [2] is “+”. Moreover, the results for the IC50 (in assay [3]; against C-GMP-PDE (type V)) were 200 nM and 3400 nM, respectively.
With `C=CCc1cc2c(cc1O)C(=O)c1cc(O)c(CC=C)cc1-2` [Example 49], the “neurite sprouting (NS)” value in assay [1] (Dose 10^-6 (mole)) is on record as “+”. For the same compound, the Neurite outgrowth action result in assay [2] is on record as “+”. Further, the IC50 in assay [3] is 2100 nM; against C-GMP-PDE (type V) it was 2200 nM.

(Values after patent US5942641A, “Fluorenone derivatives, process for preparing the same and central or peripheral nerve degeneration repair and protective agent” (Otsuka Pharmaceutical Co., Ltd., priority 1993, dated 1999).)
